# Experiments:
# younger pigs = details: cited from earlier work
# anxious dogs = experiment: Heart rate of anxious dogs after Androstenone spray (telemetry); type: in vivo, dog; details: four anxious dogs, 10 minutes following spray with about 0.1 μg/mL Androstenone in isopropyl alcohol
# Procedure: A study was conducted to determine whether dogs' heart rate increased following application with an aerosol spray containing Androstenone.
# An aerosol spray was prepared which contained about 0.1 μg/mL of Androstenone and isopropyl alcohol using the formulation provided in Example 1.
# Four dogs determined to be “anxious” were fit with telemetry jackets and transmitters in order to continually monitor heart rate. Dot heart rates were measured for 10 minutes before treatment, 10 minutes following treatment with a control spray (isopropyl alcohol only), and 10 minutes following treatment with the test spray containing Androstenone and isopropyl alcohol.
# weaning foals = experiment: Ointment test on weaning foals, behavioral observations; type: in vivo, horse
# Procedure: A total of 20 foals divided into two groups (Group A, n=10; Group B, n=10) were weaned in pens of similar size and at the same time of the day (9 am), and were evaluated using a control and pheromone compositions. All horses were between 5 and 6 months of age and mixed breeds, primarily quarter horses. An ointment form of the composition comprising Androstenone was prepared in accordance with Table 7 for administering to the horses in this study.
# An ointment composition containing a different pheromone, 2-methylbut-2-enal (RP, 1 mg/mL), was also prepared for administration in a comparison study. An ointment containing no pheromone was prepared and used as control (CON). In group A, 5 foals were used for the control treatment, 3 foals were used for the RP treatment, and 2 foals were used for the Androstenone treatment. In group B, 3 foals were used for the control treatment, 3 foals were used for the RP treatment, and 4 foals were used for the Androstenone treatment. As such, a total of 8 foals were used for the control treatment, 6 foals were used for the RP treatment, and 6 foals were used for the Androstenone treatment in this entire study. Both of the pheromone formulations and the control were applied to each nostril. Control treatments were administered first to prevent any cross contamination to horses during day two.
# Behavioral observations were taken during the first 10 minutes (Group A and Group B) and then for four hours (Group B only) after the mares were separated from their foals. Foal behavior was recorded every minute during the first hour (or 10 minutes) and every 5 minutes for the remaining 3 hours of the study for Group B.
# Behaviors were not mutually exclusive.
# The number of shocks received by the electric fence (as foals tried to return to their mare) and vocalizations were recorded continuously. The total number of observations of each defined behaviors over the first 4 hours in Group B is presented in Table 9, which also provides the percentage of each behavior over the total number of recorded number of behaviors.
# head shy horses = experiment: Aerosol spray test on head shy horses, scored 1 through 5; type: in vivo, horse; details: for Did not work / Partially worked / Worked well: % of horses
# Procedure: The spray solution was placed in a pressurized metal aerosol can. In one group of aerosol cans, a noise making device was also added to the aerosol can. The propellant, when forced through small holes upon pressing the nozzle, caused a sound that exceeded 70 decibels. In a second group of aerosol cans, the noise making device was not added to the can, such that when the spray composition was pumped, no noise was made.
# The efficacy of an aerosol spray composition containing Androstenone was tested using thirteen adult horses, all of which were enrolled in this study after being evaluated and categorized as head shy and hard to handle (i.e., observed to move their heads away from the handler when the handler attempted to touch their heads with his hand or a halter).
# The thirteen horses were sorted into two treatment groups. One group (Group 1) of 10 horses received the Androstenone spray composition outlined in Table 4 and control (CON isopropyl alcohol) with noise (n=10), while the second group (Group 2) received the Androstenone spray and control without noise (n=3).
# In each group, the control composition was administered to the horses first and then the Androstenone spray was administered to the horses the following day immediately before the handler attempted to touch their ears and heads. The horses' behavior was then recorded and evaluated after each administration. The horses were given a numerical score of 1 through 5.
# barking/jumping dogs = experiment: Aerosol spray test on barking/jumping dogs in a kennel; type: in vivo, dog; details: for % Effective (no barking/jumping within 1 minute): 6 dogs
# Procedure: An aerosol spray composition comprising Androstenone solution was prepared in accordance with Example 1, but was then diluted in isopropyl alcohol to obtain a 1:1,000 dilution of the original concentration. The purpose of the dilution was to mask the odor of the Androstenone, which can be smelled by humans at high concentrations. The spray solution was placed in a metal aerosol can pressurized with propane. A noise making device was also added to the aerosol can. The propellant, when forced through small holes, caused a sound that exceeded 70 decibels.
# The efficacy of an aerosol spray composition containing Androstenone was tested in a commercial research facility housing a large number of dogs. A designated person walked the aisles of the kennel with a calm dog on a leash in order to identify those dogs that met the criteria of barking/jumping. The calm dog on the leash was walked in the center aisle between kennels and also sat outside the kennels. To qualify as a test subject, a dog had to repeatedly jump and bark while the calm dot and the person were in the aisle. A total of 15 dogs were chosen as test subjects.
# The dogs were separated into two treatment groups. […] The dogs in treatment group #2 were treated, when observed to be engaging in barking/jumping behavior, with a loud spray canister to which the diluted spray composition containing Androstenone had been added. The test period was for 1 minute.
# [1] = Group B, first 4 hours after weaning
# [2] = Group B, first 4 hours after weaning, ointment in each nostril
# [3] = first 10 minutes post weaning (n = 20)
# [4] = first 10 minutes post weaning, Group A and Group B (n = 20)
# [5] = Group 1, spray with noise, n=10
# [6] = Group 1, spray with noise, n=10, listed as Pheromone
# [7] = Group 2, no noise, n=3, listed as Pheromone
compound,measurement,setting,value
"C[C@]12CCC(=O)C[C@@H]1CC[C@@H]1[C@@H]2CC[C@]2(C)C=CC[C@@H]12 [Androstenone, 5-α-androst-16-en-3-one]",effect on aggressive behavior,younger pigs,reduces aggressive behavior
same,effect on heart rate,anxious dogs,no significant effect
same,reduction of head shaking compared to control ointment,weaning foals; 4 hour period after weaning,100%
same,reduction of pacing compared to control ointment,weaning foals; 4 hour period after weaning,100%
same,reduction of trotting/running compared to control ointment,weaning foals; 4 hour period after weaning,100%
same,increase of feeding behavior compared to control,"weaning foals; 4 hour period after weaning, % of observations eating hay",98%
same,Percent of observations: defecation,weaning foals; [1],0.0%
same,Percent of observations: drink,weaning foals; [1],0.0%
same,Percent of observations: feeding,weaning foals; [1],11.3%
same,Percent of observations: fight,weaning foals; [1],0.0%
same,Percent of observations: head shake,weaning foals; [1],0.0%
same,Percent of observations: interact,weaning foals; [1],0.8%
same,Percent of observations: lying,weaning foals; [1],0.0%
same,Percent of observations: pace,weaning foals; [1],0.0%
same,Percent of observations: paw,weaning foals; [1],0.0%
same,Percent of observations: shock,weaning foals; [1],0.8%
same,Percent of observations: stand,weaning foals; [1],58.8%
same,Percent of observations: trot,weaning foals; [1],0%
same,Percent of observations: vocal,weaning foals; [1],19.0%
same,Percent of observations: walk,weaning foals; [1],9.2%
same,Total observations: defecation,weaning foals; [2],0
same,Total observations: drink,weaning foals; [2],0
same,Total observations: feeding,weaning foals; [2],27
same,Total observations: fight,weaning foals; [2],0
same,Total observations: head shake,weaning foals; [2],0
same,Total observations: interact,weaning foals; [2],2
same,Total observations: lying,weaning foals; [2],0
same,Total observations: pace,weaning foals; [2],0
same,Total observations: paw,weaning foals; [2],0
same,Total observations: shock,weaning foals; [2],2
same,Total observations: stand,weaning foals; [2],141
same,Total observations: trot,weaning foals; [2],0
same,Total observations: vocal,weaning foals; [2],46
same,Total observations: walk,weaning foals; [2],22
same,Percent of observations: trot,"weaning foals; Group B, first 4 hours after weaning, listed as Pheromone A",0.0%
same,Percent of observations: defecation,weaning foals; [3],0.0%
same,Percent of observations: drink,weaning foals; [3],0.0%
same,Percent of observations: eat,weaning foals; [3],0.0%
same,Percent of observations: fight,weaning foals; [3],0.0%
same,Percent of observations: head shake,weaning foals; [3],0.0%
same,Percent of observations: interact,weaning foals; [3],0.0%
same,Percent of observations: lying,weaning foals; [3],0.0%
same,Percent of observations: pace,weaning foals; [3],0.0%
same,Percent of observations: paw,weaning foals; [3],0.0%
same,Percent of observations: shock,weaning foals; [3],0.0%
same,Percent of observations: stand,weaning foals; [3],81.8%
same,Percent of observations: trot,weaning foals; [3],0.0%
same,Percent of observations: vocal,weaning foals; [3],37.1%
same,Percent of observations: walk,weaning foals; [3],18.2%
same,Total observations: defecation,weaning foals; [4],0
same,Total observations: drink,weaning foals; [4],0
same,Total observations: eat,weaning foals; [4],0
same,Total observations: fight,weaning foals; [4],0
same,Total observations: head shake,weaning foals; [4],0
same,Total observations: interact,weaning foals; [4],0
same,Total observations: lying,weaning foals; [4],0
same,Total observations: pace,weaning foals; [4],0
same,Total observations: paw,weaning foals; [4],0
same,Total observations: shock,weaning foals; [4],0
same,Total observations: stand,weaning foals; [4],18
same,Total observations: trot,weaning foals; [4],0
same,Total observations: vocal,weaning foals; [4],13
same,Total observations: walk,weaning foals; [4],4
same,"horses showing improvement, either fully or partially, in head shy behavior",head shy horses; [5],80%
same,Did not work,head shy horses; [5],20%
same,Partially worked,head shy horses; [5],20%
same,Worked well,head shy horses; [5],60%
same,Did not work,head shy horses; [6],20%
same,Partially worked,head shy horses; [6],20%
same,Worked well,head shy horses; [6],60%
same,Avg. Score,"head shy horses; Group 1, spray with noise, n=10, score 1 (little to no effect) to 5 (easier to handle)",3.9
same,"horses showing improvement, either fully or partially, in head shy behavior","head shy horses; Group 2, no noise, n=3",100%
same,Did not work,"head shy horses; Group 2, no noise, n=3",0%
same,Partially worked,"head shy horses; Group 2, no noise, n=3",33%
same,Worked well,"head shy horses; Group 2, no noise, n=3",66%
same,Partially worked,head shy horses; [7],33%
same,Worked well,head shy horses; [7],67%
same,Avg. Score,"head shy horses; Group 2, spray with no noise, n=3, score 1 to 5",3.9
same,% Effective (no barking/jumping within 1 minute),"barking/jumping dogs; Group 2: loud spray plus Androstenone, aerosol diluted 1:1,000 in isopropyl alcohol, applied in facial/snout region",100%
same,% Effective (no barking/jumping within 1 minute),"barking/jumping dogs; Group 3: placebo first, then Androstenone spray (re-spray of dogs not responding to placebo)",83.5%
same,"% Effective (no barking/jumping within 1 minute), overall Androstenone efficacy",barking/jumping dogs; all dogs that received the Androstenone spray (11 of 12 responded),91.7%
same,observed effect on barking/jumping,"barking/jumping dogs; diluted Androstenone spray, dogs",immediate cessation of barking/jumping
same,time barking/jumping stopped before barking resumed,"barking/jumping dogs; the one dog that did not respond by the 60 second criterion, after Androstenone spray",40 s

# — US9480688B2, “Pheromone compositions and their use to modify behavior in different vertebrate species” (priority 2011, dated 2016)
